Test results as given in patent US11160806B2, “Salt of N-(2,6-diethylphenyl)-8-({4-[4-(dimethylamino) piperidin-1-yl]-2-methoxyphenyl}amino)-1-methyl-4,5-dihydro-1H-pyrazolo[4,3-h]quinazoline-3-carboxamide, its preparation, and formulations containing it” (LES LABORATOIRES SERVIER, priority 2017, dated 2021).

Columns and labels:
[1] = Preliminary solubility test, in situ salt formation from the amorphous base in water at room temperature; format: physicochemical
[2] = Hygroscopicity by Dynamic Vapour Sorption; format: physicochemical
Method: The compound to be tested is submitted to hygroscopicity test by means of a Dynamic Vapour Sorption apparatus (DVS 1000—Surface Measurement Systems).
The apparatus is briefly defined as a “controlled atmosphere microbalance” where the weighed sample is exposed to variations of the relative humidity (RH) at a constant and controlled temperature. An exactly weighed amount of the product (generally 5-10 mg) was analysed.

[3] = target: T1, MPS1 (Monopolar Spindle 1) kinase, also known as TTK (Homo sapiens, UniProt P33981); settings: cited from earlier work
T1 sequence (P33981 1-857): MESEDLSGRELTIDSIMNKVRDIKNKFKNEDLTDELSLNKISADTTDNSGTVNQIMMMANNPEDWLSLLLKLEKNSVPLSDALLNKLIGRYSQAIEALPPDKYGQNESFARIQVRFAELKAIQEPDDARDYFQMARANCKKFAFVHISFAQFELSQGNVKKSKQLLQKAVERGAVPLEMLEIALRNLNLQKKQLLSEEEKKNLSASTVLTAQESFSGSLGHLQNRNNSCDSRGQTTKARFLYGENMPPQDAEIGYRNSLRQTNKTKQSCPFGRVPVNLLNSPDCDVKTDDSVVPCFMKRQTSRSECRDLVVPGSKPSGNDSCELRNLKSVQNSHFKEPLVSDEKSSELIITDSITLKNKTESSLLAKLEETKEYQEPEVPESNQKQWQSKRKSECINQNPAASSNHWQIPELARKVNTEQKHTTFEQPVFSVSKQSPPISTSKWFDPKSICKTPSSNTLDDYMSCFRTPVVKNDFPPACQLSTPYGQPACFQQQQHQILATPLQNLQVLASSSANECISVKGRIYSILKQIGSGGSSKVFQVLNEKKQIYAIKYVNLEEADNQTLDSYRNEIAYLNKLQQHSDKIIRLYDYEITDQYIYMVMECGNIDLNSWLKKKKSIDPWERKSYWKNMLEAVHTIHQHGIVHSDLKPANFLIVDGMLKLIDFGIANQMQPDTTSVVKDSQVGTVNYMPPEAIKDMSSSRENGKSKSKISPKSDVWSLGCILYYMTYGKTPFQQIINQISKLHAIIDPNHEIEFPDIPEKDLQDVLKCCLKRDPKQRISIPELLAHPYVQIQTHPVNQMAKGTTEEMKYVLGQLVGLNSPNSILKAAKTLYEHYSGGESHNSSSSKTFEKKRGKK

[4] = Solubility of phosphate salt crystalline form I in water (WFI) or NaCl 0.9% at room temperature, HPLC; format: physicochemical; settings: for Solubility 1 hour / Solubility 24 hours: room temperature
Method: Testing conditions: about 730 mg of testing compound were suspended in 4 ml of WFI (water for injection) or Saline (0.9% NaCl) to test a target solubility of 150 mg/ml as free base. The suspensions were magnetically stirred for 24 hours at room temperature and protected from light in amber glass vial. Testing compound concentrations were determined after 1 and 24 hours.

[5] = Stability over time under denaturing conditions (40° C./75% RH), chemical purity; format: physicochemical
Method: The compound of formula (II) according to the invention has a good stability over time under denaturing conditions (40° C./75% Relative Humidity (RH)): […]

[6] = Purity and stability under long term conditions; format: physicochemical
From the text: Purity and stability of N-(2,6-diethylphenyl)-8-({4-[4-(dimethylamino) piperidin-1-yl]-2-methoxy phenyl}amino)-1-methyl-4,5-dihydro-1H-pyrazolo[4,3-h]quinazoline-3-carboxamide phosphate Form I have been tested under long term conditions as follows: […]

For CCc1cccc(CC)c1NC(=O)c1nn(C)c2c1CCc1cnc(Nc3ccc(N4CCC(N(C)C)CC4)cc3OC)nc1-2 [Free Base, N-(2,6-diethylphenyl)-8-({4-[4-(dimethylamino)piperidin-1-yl]-2-methoxyphenyl}amino)-1-methyl-4,5-dihydro-1H-pyrazolo[4,3-h]quinazoline-3-carboxamide], the “Solubility 1 hour” value ([1]; water, 1 hour) was under 0.001 mg/ml as free base, the “Solubility 24 hours” value ([1]; water, 24 hours) was under 0.001 mg/ml as free base and the Water uptake at 30% RH [2] was 0.4%. For the same molecule, the Water uptake at 60% RH [2] was 1%, the Water uptake at 90% RH [2] was 2.8% and the “Ability to inhibit MPS1 kinase” value [3] was “has the ability to inhibit MPS1”. The “Solubility 1 hour” value ([4]; water) was under 0.001 mg/ml as free base and the “Solubility 24 hours” value ([4]; water) was under 0.001 mg/ml as free base.

For CCc1cccc(CC)c1NC(=O)c1nn(C)c2c1CCc1cnc(Nc3ccc(N4CCC(N(C)C)CC4)cc3OC)nc1-2.O=P(O)(O)O [Phosphate salt, N-(2,6-diethylphenyl)-8-({4-[4-(dimethylamino)piperidin-1-yl]-2-methoxyphenyl}amino)-1-methyl-4,5-dihydro-1H-pyrazolo[4,3-h]quinazoline-3-carboxamide phosphate], the “Improvement of solubility versus the free base” value [1] was “at least 24 000 times”, the “Improvement of solubility versus the hydrochloride salt” value [1] was “at least 25 times” and the Water uptake at 30% RH [2] was 0.4%. The Water uptake at 60% RH [2] was 1%, the Water uptake at 90% RH [2] was 2.5% and the Chemical purity ([5]; 1 month 40° C./75% RH Open bottle) was 99.4%. For the same molecule, the Chemical purity ([5]; t0) was 99.5%, the “Solubility 1 hour” value ([4]; NaCl 0.9%) was 81.0 mg/ml as free base and the “Solubility 24 hours” value ([4]; NaCl 0.9%) was 133.6 mg/ml as free base. The “Solubility at room temperature” value ([4]; both in water and in NaCl 0.9%) was “at least 130 mg/ml expressed as free base”, the “Solubility 1 hour” value ([4]; water) was 87.5 mg/ml as free base and the “Solubility 24 hours” value ([4]; water) was 130.2 mg/ml as free base. The Appearance ([6]; 1 month 5° C.) was “Yellow”, the Drug substance ([6]; 1 month 5° C.) was 99.94% and the “Total amount of impurities” value ([6]; 1 month 5° C.) was 0.06%. The Appearance ([6]; 1 month 25° C./60% RH) was “Yellow”, the Drug substance ([6]; 1 month 25° C./60% RH) was 99.93% and the “Total amount of impurities” value ([6]; 1 month 25° C./60% RH) was 0.07%. The Appearance ([6]; 3 months 5° C.) was “Yellow”, the Drug substance ([6]; 3 months 5° C.) was 99.93% and the “Total amount of impurities” value ([6]; 3 months 5° C.) was 0.07%. The Appearance ([6]; 3 months 25° C./60% RH) was “Yellow”, the Drug substance ([6]; 3 months 25° C./60% RH) was 99.93% and the “Total amount of impurities” value ([6]; 3 months 25° C./60% RH) was 0.07%. The Appearance ([6]; 9 months 5° C.) was “Yellow”, the Drug substance ([6]; 9 months 5° C.) was 99.93% and the “Total amount of impurities” value ([6]; 9 months 5° C.) was 0.07%. For the same molecule, the Appearance ([6]; 12 months 5° C.) was “Yellow”, the “Crystalline Form (XRD assessment)” value ([6]; 12 months 5° C.) was “Form I” and the Drug substance ([6]; 12 months 5° C.) was 99.94%. For the same molecule, the “Total amount of impurities” value ([6]; 12 months 5° C.) was 0.06%, the Appearance ([6]; 24 months 5° C.) was “Yellow” and the “Crystalline Form (XRD assessment)” value ([6]; 24 months 5° C.) was “Form I”. For the same molecule, the Drug substance ([6]; 24 months 5° C.) was 99.91%, the “Total amount of impurities” value ([6]; 24 months 5° C.) was 0.09% and the “Time over which the substance is stable” value ([6]; long term conditions) was at least 24 months. The Appearance ([6]; t0) was “Yellow”, the “Crystalline Form (XRD assessment)” value ([6]; t0) was “Form I” and the Drug substance ([6]; t0) was 99.94%. The “Total amount of impurities” value ([6]; t0) was 0.06%.
